IC50, EC50 and SUVmax data for 8 molecules are collected here from ChEMBL document CHEMBL6078624, “Structure-based discovery of a 4,5-Dihydropyrazole-cored PET ligand for imaging of receptor-interacting serine/threonine-protein kinase 1 (RIPK1) in the brain” (Eur J Med Chem, 2024).

Each structure is given as a SMILES string.

The subject of data set [1] is HT-29. The data set is described as follows: Anti-necroptotic activity against TNF induced human HT-29 cells assessed as cell viability incubated for 48 hrs by Cell Titer-Glo luminescent cell viability assay. The class given is functional, cell-based. Conditions: HT-29, 48 h.
The test system of data set [2] is L929. The data set is described as follows: Anti-necroptotic activity against TNF induced mouse L929 cells assessed as cell viability incubated for 24 hrs by Cell Titer-Glo luminescent cell viability assay. The format is functional, cell-based. Conditions: L929, 24 h.
Data set [3] in a line: Inhibition of TSZ-induced necroptosis in human HT-29 cells by CellTiter-Glo luminescent cell viability assay.
Data set [4] is described as follows: Drug uptake in macaque brain measured at 5 mins by micro-PET imaging analysis. The format is ADME, tissue-based. The settings on record: macaca, in vivo.

In the case of `Cc1ncc(-c2ccc3nc(N[11C](C)=O)sc3c2)cc1NC(=O)CC1CCCCC1`, the IC50 is 23 nM in data set [1] and 13 nM in data set [2].

Turning to `O=C(c1cccc(F)n1)N1CCC(C(=O)N2N=CCC2c2cc(F)cc(F)c2)CC1` (centres undefined), in data set [3], the EC50 was found to be 100 nM.

In data set [3], `Cc1ccc(C2CC=NN2C(=O)C2CCN(C(=O)c3cccc(F)n3)CC2)cc1F` (centres undefined) returned an EC50 of 19.9 nM.

`CC(C)(C)C(=O)N1N=CC[C@H]1c1cccc([11CH3])c1`: the SUVmax in data set [4] was ~ 3.7.

On to `O=C(c1ccccn1)N1CCC(C(=O)N2N=CCC2c2cc(F)cc(F)c2)CC1` (centres undefined), for which, in data set [3], a half-maximal effect (EC50) was put at 47.7 nM.

As to `O=C(c1ccccn1)N1CCC(C(=O)N2N=CCC2c2cccc(F)c2)CC1` (centres undefined), in data set [3], the response was half-maximal at 68.2 nM (EC50).

The molecule `O=C(c1cccc(F)n1)N1CCC(C(=O)N2N=CCC2c2cccc(F)c2)CC1` (centres undefined) registered a concentration for a half-maximal effect (EC50) in data set [3] of 98.3 nM.

For the molecule `O=C(c1cccc(F)n1)N1CCC(C(=O)N2N=CCC2c2ccccc2)CC1` (centres undefined), in data set [3], the concentration giving a half-maximal response (EC50) came to 242 nM.

For orientation: IC50 means the concentration that gives 50% inhibition. One may read the EC50 as the concentration that produces a half-maximal response.
